# Test results as given in the supplement of paper PMC10307832.
# What was measured:
# Assay in all cases: relative viability (nuclei count vs DMSO), 5 days (fraction); higher = more cells survive
# Cediranib = compound: COc1cc2c(Oc3ccc4[nH]c(C)cc4c3F)ncnc2cc1OCCCN1CCCC1 [Cediranib]
# Procedure, shortened: (§1)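 On vehicle-anchored 1536-well plates, lung cancer cell lines held overnight at 37 °C were pinned with five library-drug doses (not always all listed) spaced by √10. With no medium change over 5 days, they were then fixed, permeabilised and Hoechst-stained in one step and imaged at 4×. MetaXpress counted nuclei, and viability is the median across plates of treated-well over vehicle-well nuclei. Acceptance needed control CV below 25% and at least one doubling.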
# Decitabine = compound: Nc1ncn([C@H]2C[C@H](O)[C@@H](CO)O2)c(=O)n1 [Decitabine]
# Procedure, shortened: as §1
# Halofuginone = compound: O=C(C[C@H]1NCCC[C@@H]1O)Cn1cnc2cc(Br)c(Cl)cc2c1=O (racemic) [Halofuginone]
# Procedure, shortened: as §1
Cell Line,relative viability (Cediranib; 0.04 µM),relative viability (Cediranib; 0.1265 µM),relative viability (Cediranib; 0.4 µM),relative viability (Cediranib; 1.265 µM),relative viability (Cediranib; 4 µM),relative viability (Decitabine; 0.04 µM),relative viability (Decitabine; 0.1265 µM),relative viability (Decitabine; 0.4 µM),relative viability (Decitabine; 1.265 µM),"relative viability (Decitabine; 2 µM, anchor plate)",relative viability (Decitabine; 4 µM),relative viability (Halofuginone; 0.001 µM),relative viability (Halofuginone; 0.003162 µM),relative viability (Halofuginone; 0.01 µM),relative viability (Halofuginone; 0.03162 µM),relative viability (Halofuginone; 0.1 µM)
EKVX,1.05,0.929,0.888,0.844,1.03,0.71,0.809,0.647,0.418,0.358,0.375,1.06,0.928,0.989,1,0.858
EMC-BAC-2,0.957,0.753,0.913,0.933,1.09,–,1.04,0.817,0.726,0.976,0.685,1.07,0.977,1.13,0.926,0.595
EPLC-272H,0.77,–,0.915,0.792,0.975,0.6,0.749,–,0.46,0.386,0.407,1.07,1.02,0.921,1.01,0.889
H3255,1.1,0.859,0.964,0.938,0.986,0.636,0.857,0.702,0.668,0.657,0.666,1.07,0.99,0.88,0.95,0.992
HARA,0.908,1.01,0.878,1.05,1.01,0.79,0.818,0.482,0.381,0.519,0.374,0.963,0.927,0.915,1.12,0.827
HCC-15,1.03,–,0.948,1.08,1,0.915,0.917,0.419,0.483,0.661,0.508,0.991,1.14,0.981,0.979,0.842
HCC-44,0.996,–,0.945,0.959,0.983,0.924,0.985,0.348,0.545,0.938,0.639,0.988,0.98,0.972,0.953,0.8
HCC-78,0.963,1.05,0.965,1.03,1,0.877,0.816,0.673,0.541,0.706,0.47,1.07,0.961,0.958,1.06,0.879
HCC-366,1.1,1.02,0.993,1.02,1,1.03,0.977,0.546,0.241,0.344,0.155,1.02,1.05,1,0.963,1.01
HCC-827,1.19,–,1.02,1.04,1.03,0.306,0.483,0.398,0.288,0.325,0.377,1.07,1.04,0.976,1.03,0.939
HOP-62,1.07,0.695,0.892,0.983,1.08,0.631,0.472,0.253,0.165,0.212,0.199,0.964,1.11,1.01,0.863,0.69
